Test results reported in PubChem BioAssay (NCI).
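96-well plates; 48 h exposure; 5 concentrations. Endpoints by linear interpolation between flanking doses. Not reached: highest tested concentration assigned. At the GI50, growth is halved. At the TGI there is no net growth.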

Key:
Assay in all cases: growth of human tumour cells (NCI), 48 h
RPMI-8226 leukemia = test system: RPMI-8226 leukemia
HOP-92 NSCLC = test system: HOP-92 NSCLC
SK-MEL-2 melanoma = test system: SK-MEL-2 melanoma
TK-10 renal = test system: TK-10 renal
UACC-257 melanoma = test system: UACC-257 melanoma
NCI-H522 lung = test system: NCI-H522 lung
CAKI-1 renal = test system: CAKI-1 renal
OVCAR-5 ovarian = test system: OVCAR-5 ovarian
SK-MEL-28 melanoma = test system: SK-MEL-28 melanoma
COLO 205 colon = test system: COLO 205 colon
SF-539 CNS = test system: SF-539 CNS
SF-268 CNS = test system: SF-268 CNS
HS 578T breast = test system: HS 578T breast
CCRF-CEM leukemia = test system: CCRF-CEM leukemia
SN12C renal = test system: SN12C renal
IGROV1 ovarian = test system: IGROV1 ovarian
PC-3 prostate = test system: PC-3 prostate
BT-549 breast = test system: BT-549 breast
HCT-116 colon = test system: HCT-116 colon
DU-145 prostate = test system: DU-145 prostate
NCI-H460 lung = test system: NCI-H460 lung
SK-OV-3 ovarian = test system: SK-OV-3 ovarian
MDA-MB-435 = test system: MDA-MB-435
K-562 leukemia = test system: K-562 leukemia
A498 renal = test system: A498 renal
OVCAR-4 ovarian = test system: OVCAR-4 ovarian
T-47D breast = test system: T-47D breast
M14 melanoma = test system: M14 melanoma
HOP-62 NSCLC = test system: HOP-62 NSCLC
KM12 colon = test system: KM12 colon
A549 NSCLC = test system: A549 NSCLC
UACC-62 melanoma = test system: UACC-62 melanoma
786-0 renal = test system: 786-0 renal
MCF7 breast = test system: MCF7 breast
SF-295 CNS = test system: SF-295 CNS
UO-31 renal = test system: UO-31 renal
MALME-3M melanoma = test system: MALME-3M melanoma
MDA-MB-231 breast = test system: MDA-MB-231 breast
U251 CNS = test system: U251 CNS
NCI/ADR-RES ovarian = test system: NCI/ADR-RES ovarian
SNB-75 CNS = test system: SNB-75 CNS
OVCAR-8 ovarian = test system: OVCAR-8 ovarian
SK-MEL-5 melanoma = test system: SK-MEL-5 melanoma
SW-620 colon = test system: SW-620 colon
MOLT-4 leukemia = test system: MOLT-4 leukemia
SR leukemia = test system: SR leukemia
RXF 393 renal = test system: RXF 393 renal
HL-60(TB) leukemia = test system: HL-60(TB) leukemia
NCI-H226 lung = test system: NCI-H226 lung
LOX IMVI melanoma = test system: LOX IMVI melanoma
HT29 colon = test system: HT29 colon
HCT-15 colon = test system: HCT-15 colon
SNB-19 CNS = test system: SNB-19 CNS
NCI-H23 lung = test system: NCI-H23 lung
OVCAR-3 ovarian = test system: OVCAR-3 ovarian
HCC-2998 colon = test system: HCC-2998 colon
EKVX NSCLC = test system: EKVX NSCLC
ACHN renal = test system: ACHN renal

`COC(=O)c1cc2c(cc1Cl)Sc1nnc(Nc3ccccc3)n1S2(=O)=O` was tested, and the TGI (RPMI-8226 leukemia) was 4.02 µM, the TGI (HOP-92 NSCLC) was 3.75 µM and the TGI (SK-MEL-2 melanoma) was 8.79 µM. The TGI (TK-10 renal) was 8.66 µM, the TGI (UACC-257 melanoma) was 21.7 µM and the TGI (NCI-H522 lung) was 3.26 µM. For the same molecule, the TGI (CAKI-1 renal) was 7.23 µM, the TGI (OVCAR-5 ovarian) was 21.4 µM and the TGI (SK-MEL-28 melanoma) was 10.5 µM. It also gave a TGI (COLO 205 colon) of 19.5 µM, a TGI (SF-539 CNS) of 6.07 µM and a TGI (SF-268 CNS) of 5.48 µM. The TGI (HS 578T breast) was 11.4 µM, the TGI (CCRF-CEM leukemia) was 6.13 µM and the TGI (SN12C renal) was 21.8 µM. The TGI (IGROV1 ovarian) was 2.68 µM, the TGI (PC-3 prostate) was 10 µM and the TGI (BT-549 breast) was 14.5 µM. The TGI (HCT-116 colon) was 14.7 µM, the TGI (DU-145 prostate) was 3.87 µM and the TGI (NCI-H460 lung) was 23.8 µM. For the same molecule, the TGI (SK-OV-3 ovarian) was 19.4 µM, the TGI (MDA-MB-435) was 22.7 µM and the TGI (K-562 leukemia) was > 42 µM. It also gave a TGI (A498 renal) of 12.9 µM, a TGI (OVCAR-4 ovarian) of 8.97 µM and a TGI (T-47D breast) of 3.72 µM. It also gave a TGI (M14 melanoma) of 17.5 µM, a TGI (HOP-62 NSCLC) of 5.52 µM and a TGI (KM12 colon) of 8.11 µM. It also gave a TGI (A549 NSCLC) of 26.9 µM, a TGI (UACC-62 melanoma) of 14.6 µM and a TGI (786-0 renal) of 16.4 µM. It also gave a TGI (MCF7 breast) of 8.94 µM, a TGI (SF-295 CNS) of 12.7 µM and a TGI (UO-31 renal) of 7.56 µM. It also gave a TGI (MALME-3M melanoma) of 11.6 µM, a TGI (MDA-MB-231 breast) of 17.7 µM and a TGI (U251 CNS) of 11.6 µM. The TGI (NCI/ADR-RES ovarian) was 27.4 µM, the TGI (SNB-75 CNS) was 17.1 µM and the TGI (OVCAR-8 ovarian) was > 33.1 µM. It also gave a TGI (SK-MEL-5 melanoma) of 21.2 µM, a TGI (SW-620 colon) of 11.1 µM and a TGI (MOLT-4 leukemia) of 6.34 µM. For the same molecule, the TGI (SR leukemia) was 5.36 µM, the TGI (RXF 393 renal) was 5.96 µM and the TGI (HL-60(TB) leukemia) was 7.62 µM. For the same molecule, the TGI (NCI-H226 lung) was 14.8 µM, the TGI (LOX IMVI melanoma) was 93.6 µM and the TGI (HT29 colon) was 5.17 µM. The TGI (HCT-15 colon) was 6.05 µM, the TGI (SNB-19 CNS) was 7.98 µM and the TGI (NCI-H23 lung) was 6.71 µM. It also gave a TGI (OVCAR-3 ovarian) of 3.36 µM, a TGI (HCC-2998 colon) of 4.59 µM and a TGI (EKVX NSCLC) of 19.9 µM. For the same molecule, the TGI (ACHN renal) was 4.16 µM.

`COc1ccc(-c2cc(/C=C/C(=O)c3ccc(N)cc3)[nH]n2)cc1OC` gave a GI50 (RPMI-8226 leukemia) of 1.28 µM, a TGI (RPMI-8226 leukemia) of 5.52 µM and a GI50 (HOP-92 NSCLC) of 14.9 µM. The TGI (HOP-92 NSCLC) was 30.9 µM, the GI50 (SK-MEL-2 melanoma) was 8.44 µM and the TGI (SK-MEL-2 melanoma) was 22.2 µM. The GI50 (TK-10 renal) was 10.9 µM, the TGI (TK-10 renal) was 23 µM and the GI50 (UACC-257 melanoma) was 6.46 µM. It also gave a TGI (UACC-257 melanoma) of 19.5 µM, a GI50 (NCI-H522 lung) of 1.65 µM and a TGI (NCI-H522 lung) of 3.22 µM. For the same molecule, the GI50 (OVCAR-5 ovarian) was 2.62 µM, the TGI (OVCAR-5 ovarian) was 7.94 µM and the GI50 (SK-MEL-28 melanoma) was 2.14 µM. For the same molecule, the TGI (SK-MEL-28 melanoma) was 5.66 µM, the GI50 (COLO 205 colon) was 1.88 µM and the TGI (COLO 205 colon) was 3.59 µM. For the same molecule, the GI50 (SF-539 CNS) was 1.73 µM, the TGI (SF-539 CNS) was 3.53 µM and the GI50 (SF-268 CNS) was 1.89 µM. The TGI (SF-268 CNS) was 4.4 µM, the GI50 (HS 578T breast) was 6.58 µM and the TGI (HS 578T breast) was > 100 µM. For the same molecule, the GI50 (CCRF-CEM leukemia) was 1.74 µM, the TGI (CCRF-CEM leukemia) was 7.81 µM and the GI50 (SN12C renal) was 3.53 µM. The TGI (SN12C renal) was 13.7 µM, the GI50 (IGROV1 ovarian) was 4.56 µM and the TGI (IGROV1 ovarian) was 19 µM. The GI50 (PC-3 prostate) was 3.71 µM, the TGI (PC-3 prostate) was 19.8 µM and the GI50 (BT-549 breast) was 1.5 µM. The TGI (BT-549 breast) was 2.94 µM, the GI50 (HCT-116 colon) was 1.71 µM and the TGI (HCT-116 colon) was 3.51 µM. For the same molecule, the GI50 (DU-145 prostate) was 3.74 µM, the TGI (DU-145 prostate) was 13.5 µM and the GI50 (NCI-H460 lung) was 2.03 µM. For the same molecule, the TGI (NCI-H460 lung) was 4.53 µM, the GI50 (SK-OV-3 ovarian) was 4.86 µM and the TGI (SK-OV-3 ovarian) was 16.8 µM. It also gave a GI50 (MDA-MB-435) of 2.53 µM, a TGI (MDA-MB-435) of 7.23 µM and a GI50 (K-562 leukemia) of 2.03 µM. For the same molecule, the TGI (K-562 leukemia) was 36.4 µM, the GI50 (A498 renal) was 2.37 µM and the TGI (A498 renal) was 7.09 µM. It also gave a GI50 (OVCAR-4 ovarian) of 2.68 µM, a TGI (OVCAR-4 ovarian) of 15.8 µM and a GI50 (T-47D breast) of 4.25 µM. It also gave a TGI (T-47D breast) of 26 µM, a GI50 (M14 melanoma) of 2.28 µM and a TGI (M14 melanoma) of 5.11 µM. The GI50 (HOP-62 NSCLC) was 2.8 µM, the TGI (HOP-62 NSCLC) was 9.67 µM and the GI50 (KM12 colon) was 1.68 µM. The TGI (KM12 colon) was 3.35 µM, the GI50 (A549 NSCLC) was 2.75 µM and the TGI (A549 NSCLC) was 10.1 µM. For the same molecule, the GI50 (UACC-62 melanoma) was 3.11 µM, the TGI (UACC-62 melanoma) was 10.9 µM and the GI50 (786-0 renal) was 1.88 µM. The TGI (786-0 renal) was 4.39 µM, the GI50 (MCF7 breast) was 2.28 µM and the TGI (MCF7 breast) was 8.48 µM. It also gave a GI50 (SF-295 CNS) of 3.58 µM, a TGI (SF-295 CNS) of 15.2 µM and a GI50 (UO-31 renal) of 3.03 µM. It also gave a TGI (UO-31 renal) of 13.1 µM, a GI50 (MALME-3M melanoma) of 6.72 µM and a TGI (MALME-3M melanoma) of 21.2 µM. For the same molecule, the GI50 (MDA-MB-231 breast) was 4.42 µM, the TGI (MDA-MB-231 breast) was 17.2 µM and the GI50 (U251 CNS) was 1.74 µM. The TGI (U251 CNS) was 3.66 µM, the GI50 (NCI/ADR-RES ovarian) was 6.21 µM and the TGI (NCI/ADR-RES ovarian) was > 100 µM. The GI50 (SNB-75 CNS) was 2.74 µM, the TGI (SNB-75 CNS) was 14.2 µM and the GI50 (OVCAR-8 ovarian) was 2.95 µM. The TGI (OVCAR-8 ovarian) was 10.5 µM, the GI50 (SK-MEL-5 melanoma) was 3.16 µM and the TGI (SK-MEL-5 melanoma) was 11.5 µM. For the same molecule, the GI50 (SW-620 colon) was 2.5 µM, the TGI (SW-620 colon) was 6.94 µM and the GI50 (MOLT-4 leukemia) was 3.11 µM. The TGI (MOLT-4 leukemia) was 16.5 µM, the GI50 (SR leukemia) was 0.587 µM and the TGI (SR leukemia) was 5.31 µM. The GI50 (RXF 393 renal) was 2.15 µM, the TGI (RXF 393 renal) was 5.12 µM and the GI50 (HL-60(TB) leukemia) was 3.45 µM. The TGI (HL-60(TB) leukemia) was > 100 µM, the GI50 (NCI-H226 lung) was 2.32 µM and the TGI (NCI-H226 lung) was 7.38 µM. It also gave a GI50 (LOX IMVI melanoma) of 1.92 µM, a TGI (LOX IMVI melanoma) of 3.91 µM and a GI50 (HT29 colon) of 2.6 µM. It also gave a TGI (HT29 colon) of 6.91 µM, a GI50 (HCT-15 colon) of 1.7 µM and a TGI (HCT-15 colon) of 5.37 µM. It also gave a GI50 (SNB-19 CNS) of 4.36 µM, a TGI (SNB-19 CNS) of 18 µM and a GI50 (NCI-H23 lung) of 4.21 µM. For the same molecule, the TGI (NCI-H23 lung) was 19.3 µM, the GI50 (OVCAR-3 ovarian) was 1.92 µM and the TGI (OVCAR-3 ovarian) was 4.19 µM. It also gave a GI50 (HCC-2998 colon) of 2.02 µM, a TGI (HCC-2998 colon) of 3.83 µM and a GI50 (ACHN renal) of 1.67 µM. For the same molecule, the TGI (ACHN renal) was 3.29 µM.
